The record followed here is patent US11111234B2, “Salt of a quinazoline derivative-like tyrosine kinase inhibitor and crystal form thereof” (Xuanzhu Pharma Co., Ltd., priority 2016, dated 2021).

Structures can show the parent of a compound that is named as a salt.

What all share (type): physicochemical
Series [1] in a line: Study on solubility (HPLC). How it is done:
measurement was performed in accordance with High Performance Liquid Chromatography in Appendix II V D in Pharmacopoeia of the People's Republic of China (2010) Volume II.

A short description of series [2]: Study on hygroscopicity (pharmaceutical hygroscopicity test, General Rule 9103 ChP 2015). How it is done: measurement was performed in accordance with the Guidelines for pharmaceutical hygroscopicity test in General Rule 9103 of Pharmacopoeia of the People's Republic of China (2015) Volume IV.
Series [3] can be described thus: Study on stability (high temperature, high moisture, light; purity by HPLC and XRD). The following applies: for XRD: compared with the XRD pattern at Day 0. How it is done: The Crystal form A of the maleate of the compound of Formula (1) and the hydrochloride of the compound of Formula (1) were kept at 70° C. for 3 d, and the samples were taken at Day 1 and Day 3, respectively, and were tested for purity and XRD, which were compared with those of the sample at Day 0.
The Crystal form A of the maleate of the compound of Formula (1) was kept under conditions of high moisture (25° C., RH92.5%) for 5 d, or under condition of light (4500LX±500LX) for 10 d, and was tested for purity and XRD, which were compared with those of the sample at Day 0.
Purity measurement: measurement was performed in accordance with High Performance Liquid Chromatography in Appendix II V D in Pharmacopoeia of the People's Republic of China (2010) Volume II.
XRD test: the same as described in Example 1.

`COc1cc2ncnc(Nc3ccc(F)c(Cl)c3)c2cc1NC(=O)/C=C/CN1CC2(CCC2)C1` [Hydrochloride of the compound of Formula (1)] [(E)-N-(4-((3-chloro-4-fluorophenyl)amino)-7-methoxylquinazolin-6-yl)-4-(2-azaspiro[3.3]heptan-2-yl)-2-butenamide]: the solubility in series [1] (H2O) came to 2200.6 µg/mL; in series [1] (pH of solution 1.0) it was 3255.8 µg/mL; in series [1] (pH of solution 4.5), 1883.0 µg/mL; in series [1] (pH of solution 6.5) it was 17.6 µg/mL; in series [1] (pH of solution 7.4) it was 11.2 µg/mL. In series [2], the “Hygroscopic weight gain(%)” value stood at 7.8%. Further, the “purity (%)” value in series [3] (70° C., standing time 0 d) was found to be 98.4%; in series [3] (70° C., standing time 1 d), 92.5%; in series [3] (70° C., standing time 3 d) it was 89.0%. Besides, the decrease in purity in series [3] (high temperature (70° C.) for 3 d) came out at 9.4%.

Consider `COc1cc2ncnc(Nc3ccc(F)c(Cl)c3)c2cc1NC(=O)/C=C/CN1CC2(CCC2)C1` [Crystal form A of the maleate of the compound of Formula (1)] [(E)-N-(4-((3-chloro-4-fluorophenyl)amino)-7-methoxylquinazolin-6-yl)-4-(2-azaspiro[3.3]heptan-2-yl)-2-butenamide], for which the solubility worked out at 4411.5 µg/mL in series [1] (H2O); 20277.8 µg/mL in series [1] (pH of solution 1.0); 9748.4 µg/mL in series [1] (pH of solution 4.5); 89.1 µg/mL in series [1] (pH of solution 6.5); 68.9 µg/mL in series [1] (pH of solution 7.4). In series [1] (under various pH conditions), the “solubility compared with the hydrochloride” value is recorded as “higher solubility”. In series [2], the “Hygroscopic weight gain(%)” value is 0.07%. In series [2], the Hygroscopicity result is “No or almost no”. Also, the “hygroscopicity compared with the hydrochloride” value in series [2] is reported as “lower hygroscopicity”. In addition, the “purity (%)” value in series [3] (25° C., RH92.5%, standing time 0 d) turned out to be 98.6%; in series [3] (25° C., RH92.5%, standing time 5 d), 98.4%; in series [3] (70° C., standing time 0 d) it was 98.4%; in series [3] (70° C., standing time 1 d), 98.0%; in series [3] (70° C., standing time 3 d) it was 97.4%; in series [3] (light 4500LX ± 500LX, standing time 0 d) it was 98.6%. Besides, the “purity (%)” value in series [3] (light 4500LX ± 500LX, standing time 10 d) amounted to 98.4%. The XRD entry was “the same as” in series [3] (70° C., 1 d); “the same as” in series [3] (70° C., 3 d); “the same as” in series [3] (light 4500LX ± 500LX, 10 d). For the same molecule, the change in purity entry in series [3] (light (4500LX±500LX) 10 d, high moisture (25° C., RH92.5%) 5 d, or high temperature (70° C.) 3 d) is reported as “No apparent change in purity”.
